In this experiment the test system is BDF1 mice, P388 leukemia ip, median survival T/C. As to the kind of experiment: NCI In Vivo Anticancer Drug Screen. Data for tumor model P388 Leukemia (intraperitoneal) in B6D2F1 (BDF1) mice. To be noted: endpoint: median survival time, higher = longer survival. Summed up:
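Transplantable tumour in mice; compound vs vehicle dosing; survival scored; ratio of treated to control reported.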

Setting [1] is: dose: 25.0 mg/kg/injection, schedule: Q04DX003 (ip), vehicle: water.
[2] abbreviates: dose: 50.0 mg/kg/injection, schedule: Q04DX003 (ip), vehicle: water.
The mark [3] stands for this setting: dose: 100.0 mg/kg/injection, schedule: Q04DX003 (ip), vehicle: water.
Setting [4] is: dose: 200.0 mg/kg/injection, schedule: Q01DX009 (ip), vehicle: saline with Tween-80.
The mark [5] stands for this setting: dose: 400.0 mg/kg/injection, schedule: Q04DX003 (ip), vehicle: Klucel (hydroxypropylcellulose) (HPC).
Setting [6] is: dose: 50.0 mg/kg/injection, schedule: Q01DX009 (ip), vehicle: saline with Tween-80.
Where [7] appears, read: dose: 100.0 mg/kg/injection, schedule: Q01DX009 (ip), vehicle: saline with Tween-80.

Several values for one entry are separate records, joined by “and”; a condition that tells them apart may be missing. Equal entries are not always repeated. Toxic doses and inconclusive results are not listed.

On to `NC(=Nc1ccc(Cl)cc1)/N=C(/N)N1CCN(/C(N)=N/C(N)=Nc2ccc(Cl)cc2)CC1`, for which the T/C was 120 % of control (dose: 12.5 mg/kg/injection, schedule: Q01DX009 (ip), vehicle: saline); 116 % of control (dose: 16.5 mg/kg/injection, schedule: Q01DX009 (ip), vehicle: saline); 104 % of control (dose: 25.0 mg/kg/injection, schedule: Q01DX001 (ip), vehicle: saline); 150 % of control (dose: 37.5 mg/kg/injection, schedule: Q01DX009 (ip), vehicle: saline); 113 % of control (dose: 50.0 mg/kg/injection, schedule: Q01DX001 (ip), vehicle: saline); 100 % of control (dose: 50.0 mg/kg/injection, schedule: Q04DX003 (ip), vehicle: saline). Besides, the T/C reads like this: (dose: 100.0 mg/kg/injection, schedule: Q01DX001 (ip), vehicle: saline) 109 % of control; (dose: 100.0 mg/kg/injection, schedule: Q04DX003 (ip), vehicle: saline) 115 % of control; (dose: 150.0 mg/kg/injection, schedule: Q01DX001 (ip), vehicle: Klucel (hydroxypropylcellulose) (HPC)) 116 % of control.
Consider `O=P(N1CCCCC1)(N1CC1)N1CC1`, for which the T/C runs as follows: (dose: 2.2 mg/kg/injection, schedule: Q01DX009 (ip), vehicle: saline) 103 % of control; (dose: 3.3 mg/kg/injection, schedule: Q01DX009 (ip), vehicle: saline) 118 % of control; (dose: 7.5 mg/kg/injection, schedule: Q01DX009 (ip), vehicle: saline) 185 % of control; (dose: 25.0 mg/kg/injection, schedule: Q04DX003 (ip), vehicle: saline) 225 % of control.
In the case of `O=C(c1ccccc1)c1c(-c2ccccc2)c(C(=O)c2ccccc2)c2ccccc2c1Cl`, the T/C by setting is: (dose: 12.5 mg/kg/injection, schedule: Q01DX009 (ip), vehicle: water) 102 % of control; (dose: 25.0 mg/kg/injection, schedule: Q01DX009 (ip), vehicle: water) 113 % of control; under setting [1], 114 % of control; (dose: 50.0 mg/kg/injection, schedule: Q01DX009 (ip), vehicle: water) 102 % of control; under setting [2], 104 % of control; (dose: 100.0 mg/kg/injection, schedule: Q01DX009 (ip), vehicle: water) 109 % of control. Also, the T/C was 96 % of control under setting [3]; 96 % of control (dose: 200.0 mg/kg/injection, schedule: Q01DX009 (ip), vehicle: water); 100 % of control (dose: 200.0 mg/kg/injection, schedule: Q04DX003 (ip), vehicle: water); 102 % of control (dose: 400.0 mg/kg/injection, schedule: Q01DX009 (ip), vehicle: water); 98 % of control (dose: 400.0 mg/kg/injection, schedule: Q04DX003 (ip), vehicle: water).
In the case of `CCCCCN(C)/N=N/c1nc[nH]c1C(N)=O`, the T/C by setting is: under setting [4], 100 % of control; (dose: 264.0 mg/kg/injection, schedule: Q04DX003 (ip), vehicle: Klucel (hydroxypropylcellulose) (HPC)) 90 % of control; under setting [5], 86 % of control.
As for `O=[N+]([O-])c1ccccc1N/N=C\c1c(Cl)n(-c2ccccc2)c2ccccc12`, the T/C by setting is: (dose: 100.0 mg/kg/injection, schedule: Q04DX002 (ip), vehicle: Klucel (hydroxypropylcellulose) (HPC)) 90 % of control; (dose: 200.0 mg/kg/injection, schedule: Q04DX002 (ip), vehicle: Klucel (hydroxypropylcellulose) (HPC)) 99 % of control; (dose: 400.0 mg/kg/injection, schedule: Q04DX002 (ip), vehicle: Klucel (hydroxypropylcellulose) (HPC)) 115 % of control.
As for `CCCCOCN(COCCCC)c1ncccn1`, the T/C is, setting by setting: under setting [6], 108 % of control; under setting [7], 106 % of control; under setting [4], 104 % of control.
As to `O=C(CNC(=O)Nc1n[nH]c(=S)s1)N/N=C/c1ccccc1O`, the T/C runs as follows: under setting [6], 100 % of control; under setting [7], 91 % of control; under setting [4], 98 % of control.
As to `CC1(c2ccc(Cl)s2)C(=O)N(Cl)C(=O)N1Cl` (stereo unspecified), the T/C by setting is: (dose: 6.25 mg/kg/injection, schedule: Q01DX009 (ip), vehicle: saline with Tween-80) 112 % of control; (dose: 12.5 mg/kg/injection, schedule: Q01DX009 (ip), vehicle: saline with Tween-80) 103 % of control and 106 % of control; (dose: 25.0 mg/kg/injection, schedule: Q01DX009 (ip), vehicle: saline with Tween-80) 106 % of control and 110 % of control; under setting [1], 108 % of control; under setting [6], 104 % of control and 120 % of control (2×); under setting [2], 95 % of control. In addition, the T/C by setting is: under setting [7], 95 % of control and 115 % of control; under setting [3], 102 % of control.
With `COc1ccc(Cc2ccccc2)c(O)c1`, the T/C is, setting by setting: (dose: 50.0 mg/kg/injection, schedule: Q01DX009 (ip), vehicle: other) 108 % of control; (dose: 100.0 mg/kg/injection, schedule: Q01DX009 (ip), vehicle: other) 104 % of control; (dose: 100.0 mg/kg/injection, schedule: Q04DX003 (ip), vehicle: other) 109 % of control; (dose: 200.0 mg/kg/injection, schedule: Q01DX009 (ip), vehicle: other) 116 % of control; (dose: 200.0 mg/kg/injection, schedule: Q04DX003 (ip), vehicle: other) 104 % of control; (dose: 400.0 mg/kg/injection, schedule: Q04DX003 (ip), vehicle: other) 109 % of control.
For the molecule `Cc1ccc(C(=O)N(N)C2CCCCC2)cc1`, under setting [6], the T/C is 92 % of control.
Consider `Cc1cc(N2CCOCC2)nc(N2CCOCC2)c1C#N`, for which the T/C is 91 % of control (dose: 100.0 mg/kg/injection, schedule: Q01DX005 (ip), vehicle: saline with Tween-80) and 99 % of control (dose: 200.0 mg/kg/injection, schedule: Q01DX005 (ip), vehicle: saline with Tween-80).
On to `N=c1scc(CC(=O)O)n1N`, for which the T/C is 92 % of control (dose: 50.0 mg/kg/injection, schedule: Q01DX009 (ip), vehicle: saline); 108 % of control (dose: 100.0 mg/kg/injection, schedule: Q01DX009 (ip), vehicle: saline); 92 % of control (dose: 200.0 mg/kg/injection, schedule: Q01DX009 (ip), vehicle: saline).
On to `COc1cc2ccc3c(c2cc1OC)C=NCC3`, for which the T/C runs as follows: (dose: 1.56 mg/kg/injection, schedule: Q01DX009 (ip), vehicle: saline) 100 % of control; (dose: 1.56 mg/kg/injection, schedule: Q04DX003 (ip), vehicle: saline) 95 % of control; (dose: 3.13 mg/kg/injection, schedule: Q01DX009 (ip), vehicle: saline) 110 % of control; (dose: 3.13 mg/kg/injection, schedule: Q04DX003 (ip), vehicle: saline) 100 % of control; (dose: 6.25 mg/kg/injection, schedule: Q01DX009 (ip), vehicle: saline) 110 % of control; (dose: 6.25 mg/kg/injection, schedule: Q04DX003 (ip), vehicle: saline) 104 % of control.
For `Cn1c2c(c3ccccc3c1=O)C(=O)c1ccccc1-2`, the T/C under setting [6] is 101 % of control and the T/C under setting [4] is 90 % of control.
Turning to `Cc1ccc(NC(=O)/C=C\C(=O)O)cc1`, the T/C (dose: 100.0 mg/kg/injection, schedule: Q04DX003 (ip), vehicle: Klucel (hydroxypropylcellulose) (HPC)) is 108 % of control; the T/C (dose: 200.0 mg/kg/injection, schedule: Q04DX003 (ip), vehicle: Klucel (hydroxypropylcellulose) (HPC)) was 100 % of control; the T/C under setting [5] was 100 % of control.
Take `COc1ccc2[nH]c(C)c(SC)c2c1`: the T/C (dose: 50.0 mg/kg/injection, schedule: Q04DX002 (ip), vehicle: saline with Tween-80) is 98 % of control; the T/C (dose: 100.0 mg/kg/injection, schedule: Q04DX002 (ip), vehicle: saline with Tween-80) was 100 % of control; the T/C (dose: 200.0 mg/kg/injection, schedule: Q04DX002 (ip), vehicle: saline with Tween-80) was 89 % of control.
For the molecule `OCCC1CC1=C1CC1` (stereo unspecified), the T/C by setting is: (dose: 25.0 mg/kg/injection, schedule: Q01DX009 (ip), vehicle: Klucel (hydroxypropylcellulose) (HPC)) 105 % of control; (dose: 50.0 mg/kg/injection, schedule: Q01DX009 (ip), vehicle: Klucel (hydroxypropylcellulose) (HPC)) 105 % of control; (dose: 100.0 mg/kg/injection, schedule: Q01DX009 (ip), vehicle: Klucel (hydroxypropylcellulose) (HPC)) 110 % of control.
With `CC1(c2ccc(-c3ccccc3)cc2)NC(=O)NC1=O` (stereo unspecified), the T/C runs as follows: under setting [7], 91 % of control; under setting [4], 95 % of control; (dose: 400.0 mg/kg/injection, schedule: Q01DX009 (ip), vehicle: saline with Tween-80) 88 % of control.

The values are drawn from PubChem BioAssay AID328 (DTP/NCI, 2004).
